Source: patent US8092816B2, “Insecticidal compositions for control of general household pests” (priority 2004, dated 2012)

Key:
German cockroach = experiment: Example 2: German cockroach knockdown and mortality, bifenthrin and imidacloprid; type: in vivo
Text: (§1) The following examples further illustrate the present invention, but, of course, should not be construed as in any way limiting its scope. The examples set forth certain biological data illustrating the efficacy of the compositions of the present invention in controlling general household pests. Each example embodies a separate test wherein the pests were randomly selected from a population at a random age. As a result, from example to example, the ages of the pests can be very different. This age difference potentially translates to different baselines for each example. Therefore, data should only be compared within the example and not from example to example due to the differences in age of the pests from example to example. Unless otherwise indicated, all parts, percentages, and the like are by weight. The spray chamber used in the examples was approximately 76 inches tall, 73 inches long and 31 inches deep with an adjustable shelf (approximately 22 inches deep) and a movable spray nozzle. The spray chambers were calibrated to deliver a volume of approximately 1 gallon of liquid per 1000 square feet of area at about 14 pounds per square inch of pressure. A DeVilbiss hand held sprayer (Atomizer model 152) manufactured by DeVilbiss located in Glendale Heights, Ill. was used in testing house flies and mosquitoes. The DeVilbiss was used to apply approximately 3-5 milliliters of product at about 10 pounds per square inch.
The compositions of the present invention were tested for German cockroach activity in the following manner:
(§2) Test compositions made up of TALSTARONE® MULTI-INSECTICIDE and a wettable powder of imidacloprid (MERIT) in distilled water were prepared that provided appropriate rates of application of combinations of bifenthrin and imidacloprid, as well as bifenthrin and imidacloprid alone.
(§3) The spray chamber was then calibrated to deliver the treatment solution at the desired volume and pressure over the desired area on the chamber shelf. Spray chamber shelf height was adjusted to approximately 18 inches from the spray tip. The shelf was then covered with aluminum foil and the center of the shelf from front-to-back and end-to-end was determined. A desired number of 4.0″ sieve circles were marked on the aluminum foil with a permanent marker. The inside of a desired number of PVC rings were coated with a petroleum jelly/mineral oil mixture (1:2 ratio). The PVC rings were place on the sieve circles. 10 male German cockroaches were placed inside each PVC ring. The sprayer was activated and the test compound was applied to each PVC ring interior. German cockroach knockdown and mortality were measured.

Red Imported Fire Ant [1] = experiment: Example 6: red imported fire ant knockdown and mortality, bifenthrin and imidacloprid (higher rates); type: in vivo, Solenopsis invicta
Text: as §1
(§4) The compositions of the present invention were tested for red imported fire ant activity in the following manner:
as §2
(§5) The spray chamber was then calibrated to deliver the treatment solution at the desired volume and pressure over the desired area on the chamber shelf. Spray chamber shelf height was adjusted to approximately 18 inches from the spray tip. The shelf was then covered with aluminum foil and the center of the shelf from front-to-back and end-to-end was determined. The red imported file ants to be treated were collected and placed in screened 16 oz paper cups. The paper cups were placed onto the aluminum foil on the spray chamber shelf. The sprayer was activated and the test compound was applied to each paper cup interior. Red imported fire ant knockdown and mortality were measured.

Oriental cockroach = experiment: Example 10: Oriental cockroach knockdown and mortality, bifenthrin and thiamethoxam; type: in vivo
Text: as §1
The compositions of the present invention were tested for Oriental cockroach activity in the following manner:
Test compositions made up of TALSTARONE® MULTI-INSECTICIDE and a water dispersible granular of thiamethoxam (CENTRIC) in distilled water were prepared that provided appropriate rates of application of combinations of bifenthrin and thiamethoxam, as well as bifenthrin and thiamethoxam alone.
as §3, with “Oriental” for “German”

Red Imported Fire Ant [2] = experiment: Example 16: red imported fire ant knockdown and mortality, bifenthrin and clothianidin; type: in vivo, Solenopsis invicta
Text: as §1, §4
Test compositions made up of TALSTARONE® MULTI-INSECTICIDE and a 16% a.i. water dispersible granular of clothianidin in distilled water were prepared that provided appropriate rates of application of combinations of bifenthrin and clothianidin, as well as bifenthrin and clothianidin alone.
as §5, with “fire” for “file”

[3] = rate of appln. 10 PPM (0.001% by weight)
[4] = rate of appln. 50 PPM (0.005% by weight)

In the case of `Cc1c(COC(=O)[C@@H]2[C@H](/C=C(\Cl)C(F)(F)F)C2(C)C)cccc1-c1ccccc1` (racemic) [A, 2-methylbiphenyl-3-ylmethyl (Z)-(1RS)-cis-3-(2-chloro-3,3,3-trifluoroprop-1-enyl)-2,2-dimethylcyclopropanecarboxylate], the “Knockdown Rate @ 10 minute” value (German cockroach; 200 PPM, 0.02% by weight) is reported as 0%, the “Knockdown Rate @ 15 minute” value (German cockroach; 200 PPM, 0.02% by weight) is reported as 3% and the “Knockdown Rate @ 30 minutes” value (German cockroach; 200 PPM, 0.02% by weight) is reported as 45%. For the same molecule, the “Mortality Rate @ 60 minutes” value (German cockroach; 200 PPM, 0.02% by weight) was 100%, the “Mortality Rate @ 120 minutes” value (German cockroach; 200 PPM, 0.02% by weight) was 100% and the “Mortality Rate @ 1 day” value (German cockroach; 200 PPM, 0.02% by weight) was 100%. The “Knockdown Rate @ 10 minute” value (German cockroach; 600 PPM, 0.06% by weight) was 0%, the “Knockdown Rate @ 15 minute” value (German cockroach; 600 PPM, 0.06% by weight) was 8% and the “Knockdown Rate @ 30 minutes” value (German cockroach; 600 PPM, 0.06% by weight) was 60%. The “Mortality Rate @ 60 minutes” value (German cockroach; 600 PPM, 0.06% by weight) was 100%, the “Mortality Rate @ 120 minutes” value (German cockroach; 600 PPM, 0.06% by weight) was 100% and the “Mortality Rate @ 1 day” value (German cockroach; 600 PPM, 0.06% by weight) was 100%. The “Knockdown Rate @ 5 minute” value (Red Imported Fire Ant [1]; 200 PPM, 0.02% by weight) was 0%, the “Knockdown Rate @ 10 minute” value (Red Imported Fire Ant [1]; 200 PPM, 0.02% by weight) was 0% and the “Knockdown Rate @ 15 minute” value (Red Imported Fire Ant [1]; 200 PPM, 0.02% by weight) was 70%. The “Knockdown Rate @ 30 minutes” value (Red Imported Fire Ant [1]; 200 PPM, 0.02% by weight) was 88%, the “Mortality @ 120 minutes” value (Red Imported Fire Ant [1]; 200 PPM, 0.02% by weight) was 100% and the “Mortality Rate @ 60 minutes” value (Red Imported Fire Ant [1]; 200 PPM, 0.02% by weight) was 100%. For the same molecule, the “Mortality Rate @ 4 hours” value (Red Imported Fire Ant [1]; 200 PPM, 0.02% by weight) was 100%, the “Knockdown Rate @ 5 minute” value (Red Imported Fire Ant [1]; 600 PPM, 0.06% by weight) was 0% and the “Knockdown Rate @ 10 minute” value (Red Imported Fire Ant [1]; 600 PPM, 0.06% by weight) was 40%. The “Knockdown Rate @ 15 minute” value (Red Imported Fire Ant [1]; 600 PPM, 0.06% by weight) was 88%, the “Knockdown Rate @ 30 minutes” value (Red Imported Fire Ant [1]; 600 PPM, 0.06% by weight) was 100% and the “Mortality @ 120 minutes” value (Red Imported Fire Ant [1]; 600 PPM, 0.06% by weight) was 100%. The “Mortality Rate @ 60 minutes” value (Red Imported Fire Ant [1]; 600 PPM, 0.06% by weight) was 100%, the “Mortality Rate @ 4 hours” value (Red Imported Fire Ant [1]; 600 PPM, 0.06% by weight) was 100% and the “Knockdown Rate @ 15 minute” value (Oriental cockroach; 10 PPM, 0.001% by weight) was 0%. The “Knockdown Rate @ 30 minute” value (Oriental cockroach; 10 PPM, 0.001% by weight) was 0%, the “Mortality Rate @ 60 minutes” value (Oriental cockroach; 10 PPM, 0.001% by weight) was 0% and the “Mortality Rate @ 120 minutes” value (Oriental cockroach; 10 PPM, 0.001% by weight) was 0%. The “Mortality Rate @ 4 hours” value (Oriental cockroach; 10 PPM, 0.001% by weight) was 0%, the “Mortality Rate @ 1 day” value (Oriental cockroach; 10 PPM, 0.001% by weight) was 0% and the “Knockdown Rate @ 15 minute” value (Oriental cockroach; 50 PPM, 0.005% by weight) was 0%. The “Knockdown Rate @ 30 minute” value (Oriental cockroach; 50 PPM, 0.005% by weight) was 0%, the “Mortality Rate @ 60 minutes” value (Oriental cockroach; 50 PPM, 0.005% by weight) was 0% and the “Mortality Rate @ 120 minutes” value (Oriental cockroach; 50 PPM, 0.005% by weight) was 0%. For the same molecule, the “Mortality Rate @ 4 hours” value (Oriental cockroach; 50 PPM, 0.005% by weight) was 0%, the “Mortality Rate @ 1 day” value (Oriental cockroach; 50 PPM, 0.005% by weight) was 45% and the “Knockdown Rate @ 5 minute” value (Red Imported Fire Ant [2]; [3]) was 30%. For the same molecule, the “Knockdown Rate @ 10 minute” value (Red Imported Fire Ant [2]; [3]) was 93%, the “Knockdown Rate @ 15 minute” value (Red Imported Fire Ant [2]; [3]) was 95% and the “Knockdown Rate @ 30 minutes” value (Red Imported Fire Ant [2]; [3]) was 100%. For the same molecule, the “Mortality Rate @ 60 minutes” value (Red Imported Fire Ant [2]; [3]) was 65%, the “Mortality Rate @ 120 minutes” value (Red Imported Fire Ant [2]; [3]) was 100% and the “Mortality Rate @ 4 hours” value (Red Imported Fire Ant [2]; [3]) was 100%. The “Knockdown Rate @ 5 minute” value (Red Imported Fire Ant [2]; [4]) was 10%, the “Knockdown Rate @ 10 minute” value (Red Imported Fire Ant [2]; [4]) was 70% and the “Knockdown Rate @ 15 minute” value (Red Imported Fire Ant [2]; [4]) was 95%. For the same molecule, the “Knockdown Rate @ 30 minutes” value (Red Imported Fire Ant [2]; [4]) was 100%, the “Mortality Rate @ 60 minutes” value (Red Imported Fire Ant [2]; [4]) was 100% and the “Mortality Rate @ 120 minutes” value (Red Imported Fire Ant [2]; [4]) was 100%. For the same molecule, the “Mortality Rate @ 4 hours” value (Red Imported Fire Ant [2]; [4]) was 100%.
